Series [1] deals with T. cruzi clone Dm28c epimastigotes. As to the kind of experiment: Growth inhibition of T. cruzi epimastigotes, resazurin microdilution, Dm28c. In kind it is cell-based, Trypanosoma cruzi. How it is done:
(§1) Epimastigote forms of the T. cruzi clone Dm28c ([…])[31] and Y([…])[32]^,[33] strains obtained from the Laboratory of Cellular Ultrastructure (both laboratories of the Oswaldo Cruz Foundation, Rio de Janeiro, Brazil) were used. The parasites were maintained in PBHIL medium supplemented with 10% bovine serum (FBS) at 28 °C[34].
(§2) The Minimum inhibitory concentration (MIC) for epimastigotes was performed with resazurin as an indicator of cellular metabolic function and it was determined as the lowest concentration capable of inhibiting in vitro growth of the parasites.
On the technique in general: Resazurin is reduced to fluorescent resorufin, in cell work by metabolically active cells.

Series [2] deals with T. cruzi Y strain epimastigotes. In words: Growth inhibition of T. cruzi epimastigotes, resazurin microdilution, Y strain. In kind it is cell-based. As to conditions: Trypanosoma cruzi; TcY epimastigotes, drug nanoemulsions; read-out: IC90 (concentration which reduced the proliferation of epimastigotes by 90%). How it is done: as §1, §2
The test system of series [3] is T. cruzi Dm28c strain epimastigotes. In words: Flow cytometry annexin V-FITC / propidium iodide, Dm28c. In kind it is cell-based, Trypanosoma cruzi. As to conditions: 32 μM. The protocol:
The analysis of the externalization of phosphatidylserine was performed using annexin V fluoresceine isothiocyanate (AV FITC) and propidium iodide, PI (Santa Cruz Biotechonology, Santa Cruz, CA). The cells were analysed by flow cytometry (FACS Calibur-Beckton-Dickinson), 50,000 events were analysed by the Paint-a-gate program and values were expressed as percentage of cells positive for a given marker relative to the total number of cells: FITC-labelled cells […], PI-labelled cells […], and cells with ruptured cell membrane (necrotic cells will be double-labelled).

In series [4] the test system is Trypanosoma cruzi. Set-up: method as in PMID 23815159. The note with it: unformulated sulfonamides; cited from earlier work.
A short description of series [5]: Dissolution of sulfonamides in clove oil. The note with it: concentration 5 mg/ml in clove oil.
Description: Oil phase was prepared by sulfonamides dissolution in the clove oil. A 5 mg of drug was weighted in an eppendorf and 1 ml of clove oil was added. The tube was agitated for 1 min for obtaining of the drug solution (5 mg/ml). Aqueous phase were prepared by adding 1 g of Pluronic F127® in 8 mg of water. Then 1 ml of oil phase (drug dissolved in clove oil) was added to 9 ml of aqueous phase (Pluronic F127 in water) under constant ultrasound homogenization (amplitude 80%, continuous cycle n. 1) during 5 min in an ice bath at 5 °C to prevent heating of the dispersion.
The NEs were produced with 10% of oil phase.

Molecules are shown by their SMILES.

On to `O=C(Cn1ccnc1[N+](=O)[O-])NCc1ccccc1` [BZN, 2-nitro-imidazole-(N-benzil-2-nitro-1imidazoleacetamide)], for which, in series [1] (Trypanosoma cruzi, read-out: IC50 (concentration which reduced the proliferation of epimastigotes by 50%), Tc DM28c epimastigotes, drug nanoemulsions), the IC50 came out at 20.6 µM. For the same compound, the IC90 in series [1] (Trypanosoma cruzi, Tc DM28c epimastigotes, drug nanoemulsions, read-out: IC90 (concentration which reduced the proliferation of epimastigotes by 90%)) is greater than 128 µM; in series [2] it was greater than 128 µM. In addition, the “SI (selectivity index)” value in series [1] (both strains (DM28c and Y), CC50 RAW / IC50) is on record as 5–5.8. The “cell death by necrosis (propidium iodide)” value in series [3] is 51.16%.
Consider `NS(=O)(=O)c1nnc(NC(=O)Cc2ccc(Cl)cc2)s1` [5B], for which the “in vivo anti-trypanosomal effects” value in series [4] was “did not show in vivo anti-trypanosomal effects”. Besides, in series [5], the “dissolution in clove oil” value is listed as “dissolved efficiently”.
Regarding `NS(=O)(=O)c1ccc(NC(=O)Cc2ccc(Cl)cc2)c(F)c1` [3F], in series [4], the “in vivo anti-trypanosomal effects” value is given as “did not show in vivo anti-trypanosomal effects”. In series [5], the “dissolution in clove oil” value is “dissolved efficiently”.
With `NS(=O)(=O)c1nnc(NC(=O)Cc2ccccc2Br)s1` [5C], in series [4], the “in vivo anti-trypanosomal effects” value is “did not show in vivo anti-trypanosomal effects”. Moreover, the “dissolution in clove oil” value in series [5] was “dissolved efficiently”.
As to `COc1ccc(CC(=O)Nc2nnc(S(N)(=O)=O)s2)cc1` [5D], the “in vivo anti-trypanosomal effects” value in series [4] is “did not show in vivo anti-trypanosomal effects”. Also, in series [5], the “dissolution in clove oil” value is reported as “dissolved efficiently”.
For the compound `NS(=O)(=O)c1ccc(CCNC(=O)Cc2ccccc2Br)cc1` [3W], the “in vivo anti-trypanosomal effects” value in series [4] is recorded as “did not show in vivo anti-trypanosomal effects”. Also, the “dissolution in clove oil” value in series [5] is recorded as “dissolved efficiently”.
Turning to `NS(=O)(=O)c1ccc(NC(=O)Cc2ccccc2Br)c(F)c1` [3G], the “in vivo anti-trypanosomal effects” value in series [4] was “did not show in vivo anti-trypanosomal effects”. Further, the “dissolution in clove oil” value in series [5] was “dissolved efficiently”.

The values above are taken from paper PMC7011998 (Journal of Enzyme Inhibition and Medicinal Chemistry, 2017).
